Results from PMC11864979, “First-in-class ultralong-target-residence-time p38α inhibitors as a mitosis-targeted therapy for colorectal cancer” (Nature Cancer, 2025).
Like-named read-outs stand apart in the source and are kept apart here.

Key:
Assay in all cases: selectivity profiling in a panel of 340 wild-type kinases (Reaction Biology Europe)
Assay type in all cases: binding
340 wild-type kinases [1] = target: T1, 340 wild-type kinases (Homo sapiens, UniProt Q02750)
T1 construct: purchased Reaction Biology Europe

340 wild-type kinases [2] = target: T2, 340 wild-type kinases (Homo sapiens, UniProt P45984)
T2 construct: purchased Reaction Biology Europe

340 wild-type kinases [3] = target: T3, 340 wild-type kinases (Homo sapiens, UniProt Q13470)
T3 construct: purchased Reaction Biology Europe
T3 sequence (Q13470 1-666): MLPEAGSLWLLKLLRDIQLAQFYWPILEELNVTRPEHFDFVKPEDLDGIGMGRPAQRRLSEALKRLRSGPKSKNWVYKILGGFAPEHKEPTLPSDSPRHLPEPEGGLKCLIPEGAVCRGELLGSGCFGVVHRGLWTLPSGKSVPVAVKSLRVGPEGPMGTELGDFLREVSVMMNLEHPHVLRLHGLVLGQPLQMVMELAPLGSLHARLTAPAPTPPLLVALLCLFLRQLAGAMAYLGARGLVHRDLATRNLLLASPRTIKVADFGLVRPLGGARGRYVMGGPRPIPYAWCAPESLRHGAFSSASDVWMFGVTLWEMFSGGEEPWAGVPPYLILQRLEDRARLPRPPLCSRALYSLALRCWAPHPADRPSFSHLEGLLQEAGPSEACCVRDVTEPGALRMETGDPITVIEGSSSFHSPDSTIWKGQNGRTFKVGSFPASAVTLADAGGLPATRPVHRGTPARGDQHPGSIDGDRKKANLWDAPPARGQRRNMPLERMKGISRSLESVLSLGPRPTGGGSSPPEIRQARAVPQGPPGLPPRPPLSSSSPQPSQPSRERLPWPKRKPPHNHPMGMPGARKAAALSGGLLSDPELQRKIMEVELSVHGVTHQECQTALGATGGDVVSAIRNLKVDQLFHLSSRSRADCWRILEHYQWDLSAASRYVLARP

340 wild-type kinases [4] = target: T4, 340 wild-type kinases (Homo sapiens, UniProt O14757)
T4 construct: purchased Reaction Biology Europe
T4 sequence (O14757 1-476): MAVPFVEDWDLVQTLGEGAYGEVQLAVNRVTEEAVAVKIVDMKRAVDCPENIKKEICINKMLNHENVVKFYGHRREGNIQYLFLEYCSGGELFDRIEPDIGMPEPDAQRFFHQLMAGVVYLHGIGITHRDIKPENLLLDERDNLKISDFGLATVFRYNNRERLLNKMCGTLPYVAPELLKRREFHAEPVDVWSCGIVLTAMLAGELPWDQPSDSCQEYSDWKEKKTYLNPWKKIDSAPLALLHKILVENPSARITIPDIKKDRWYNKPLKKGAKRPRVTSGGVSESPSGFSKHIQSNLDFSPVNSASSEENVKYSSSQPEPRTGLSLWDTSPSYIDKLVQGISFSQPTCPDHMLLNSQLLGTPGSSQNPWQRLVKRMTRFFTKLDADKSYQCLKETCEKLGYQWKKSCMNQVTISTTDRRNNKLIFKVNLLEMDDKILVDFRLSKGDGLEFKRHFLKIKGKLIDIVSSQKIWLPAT

340 wild-type kinases [5] = target: T5, 340 wild-type kinases (Homo sapiens, UniProt P23443)
T5 construct: purchased Reaction Biology Europe

340 wild-type kinases [6] = target: T6, 340 wild-type kinases (Homo sapiens, UniProt Q15375)
T6 construct: purchased Reaction Biology Europe

340 wild-type kinases [7] = target: T7, 340 wild-type kinases (Homo sapiens, UniProt Q9BXA7)
T7 construct: purchased Reaction Biology Europe
T7 sequence (Q9BXA7 1-367): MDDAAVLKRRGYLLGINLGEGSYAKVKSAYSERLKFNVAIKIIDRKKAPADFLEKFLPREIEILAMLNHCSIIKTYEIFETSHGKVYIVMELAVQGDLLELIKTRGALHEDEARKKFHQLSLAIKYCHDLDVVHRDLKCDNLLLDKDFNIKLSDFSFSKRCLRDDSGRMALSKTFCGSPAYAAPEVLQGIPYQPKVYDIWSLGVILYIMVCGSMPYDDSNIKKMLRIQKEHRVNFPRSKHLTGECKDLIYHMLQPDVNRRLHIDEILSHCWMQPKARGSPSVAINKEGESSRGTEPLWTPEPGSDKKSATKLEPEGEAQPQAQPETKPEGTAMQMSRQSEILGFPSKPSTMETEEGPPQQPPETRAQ

340 wild-type kinases [8] = target: T8, 340 wild-type kinases (Homo sapiens, UniProt P50613)
T8 construct: purchased Reaction Biology Europe

340 wild-type kinases [9] = target: T9, 340 wild-type kinases (Homo sapiens, UniProt O60566)
T9 construct: purchased Reaction Biology Europe

340 wild-type kinases [10] = target: T10, 340 wild-type kinases (Homo sapiens, UniProt Q9P1W9)
T10 construct: purchased Reaction Biology Europe
T10 sequence (Q9P1W9 whole entry): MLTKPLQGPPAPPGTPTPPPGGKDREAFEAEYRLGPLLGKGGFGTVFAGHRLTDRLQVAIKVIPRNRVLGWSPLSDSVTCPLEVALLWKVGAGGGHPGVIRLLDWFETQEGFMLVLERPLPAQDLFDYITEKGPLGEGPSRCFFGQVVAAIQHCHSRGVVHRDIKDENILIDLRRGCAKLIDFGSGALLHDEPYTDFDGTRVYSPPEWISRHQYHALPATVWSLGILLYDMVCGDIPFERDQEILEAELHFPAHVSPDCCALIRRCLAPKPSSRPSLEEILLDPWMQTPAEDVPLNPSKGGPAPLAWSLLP

T5 sequence (P23443 whole entry): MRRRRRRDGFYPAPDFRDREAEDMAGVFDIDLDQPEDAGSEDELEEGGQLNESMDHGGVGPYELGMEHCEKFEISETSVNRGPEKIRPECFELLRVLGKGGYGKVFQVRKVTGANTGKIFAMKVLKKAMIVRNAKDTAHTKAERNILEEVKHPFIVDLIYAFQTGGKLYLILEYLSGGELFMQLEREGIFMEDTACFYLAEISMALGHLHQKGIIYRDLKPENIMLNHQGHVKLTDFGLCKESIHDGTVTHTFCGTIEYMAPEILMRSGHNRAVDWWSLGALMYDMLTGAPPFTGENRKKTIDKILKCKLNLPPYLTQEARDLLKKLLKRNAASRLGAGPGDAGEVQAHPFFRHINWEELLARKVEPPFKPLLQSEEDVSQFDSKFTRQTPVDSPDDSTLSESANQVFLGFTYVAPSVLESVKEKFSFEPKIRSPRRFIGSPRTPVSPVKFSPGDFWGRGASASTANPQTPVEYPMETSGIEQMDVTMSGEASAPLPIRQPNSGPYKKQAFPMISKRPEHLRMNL
T9 sequence (O60566 whole entry): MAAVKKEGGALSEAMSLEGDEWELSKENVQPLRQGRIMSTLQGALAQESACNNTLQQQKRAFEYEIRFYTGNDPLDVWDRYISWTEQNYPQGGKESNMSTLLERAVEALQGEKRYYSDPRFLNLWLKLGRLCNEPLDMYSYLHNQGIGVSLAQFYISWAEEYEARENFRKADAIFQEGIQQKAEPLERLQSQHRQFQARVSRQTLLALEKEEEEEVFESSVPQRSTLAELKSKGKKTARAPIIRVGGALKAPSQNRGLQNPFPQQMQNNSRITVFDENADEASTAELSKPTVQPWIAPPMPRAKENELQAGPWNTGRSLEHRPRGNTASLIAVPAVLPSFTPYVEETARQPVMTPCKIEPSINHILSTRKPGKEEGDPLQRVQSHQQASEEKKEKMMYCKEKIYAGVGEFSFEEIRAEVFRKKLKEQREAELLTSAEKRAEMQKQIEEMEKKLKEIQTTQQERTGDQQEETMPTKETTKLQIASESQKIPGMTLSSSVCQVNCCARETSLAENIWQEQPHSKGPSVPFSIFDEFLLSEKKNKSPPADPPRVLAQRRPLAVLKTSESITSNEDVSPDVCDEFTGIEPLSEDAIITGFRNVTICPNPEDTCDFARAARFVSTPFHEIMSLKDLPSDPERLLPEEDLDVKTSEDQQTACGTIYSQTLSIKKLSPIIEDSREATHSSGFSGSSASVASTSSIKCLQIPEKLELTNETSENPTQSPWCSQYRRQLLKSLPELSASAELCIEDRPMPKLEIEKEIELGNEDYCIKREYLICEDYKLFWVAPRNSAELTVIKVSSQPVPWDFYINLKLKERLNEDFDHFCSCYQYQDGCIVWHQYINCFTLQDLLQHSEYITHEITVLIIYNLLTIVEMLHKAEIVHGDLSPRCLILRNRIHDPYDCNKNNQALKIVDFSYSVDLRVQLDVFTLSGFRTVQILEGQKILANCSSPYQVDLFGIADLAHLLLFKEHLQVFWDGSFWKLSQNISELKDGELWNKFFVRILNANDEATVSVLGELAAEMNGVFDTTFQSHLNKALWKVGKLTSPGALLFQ
T1 sequence (Q02750 whole entry): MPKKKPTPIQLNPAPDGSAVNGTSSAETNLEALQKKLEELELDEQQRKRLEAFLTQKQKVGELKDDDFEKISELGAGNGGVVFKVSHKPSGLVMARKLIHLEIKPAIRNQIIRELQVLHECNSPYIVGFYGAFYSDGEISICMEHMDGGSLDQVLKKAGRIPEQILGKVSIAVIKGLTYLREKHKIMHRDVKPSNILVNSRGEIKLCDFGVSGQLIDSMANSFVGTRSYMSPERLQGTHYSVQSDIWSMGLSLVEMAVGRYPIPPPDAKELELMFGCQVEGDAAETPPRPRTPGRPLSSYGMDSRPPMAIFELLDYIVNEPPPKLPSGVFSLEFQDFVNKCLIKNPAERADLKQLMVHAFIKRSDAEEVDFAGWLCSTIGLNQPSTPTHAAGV
T8 sequence (P50613 whole entry): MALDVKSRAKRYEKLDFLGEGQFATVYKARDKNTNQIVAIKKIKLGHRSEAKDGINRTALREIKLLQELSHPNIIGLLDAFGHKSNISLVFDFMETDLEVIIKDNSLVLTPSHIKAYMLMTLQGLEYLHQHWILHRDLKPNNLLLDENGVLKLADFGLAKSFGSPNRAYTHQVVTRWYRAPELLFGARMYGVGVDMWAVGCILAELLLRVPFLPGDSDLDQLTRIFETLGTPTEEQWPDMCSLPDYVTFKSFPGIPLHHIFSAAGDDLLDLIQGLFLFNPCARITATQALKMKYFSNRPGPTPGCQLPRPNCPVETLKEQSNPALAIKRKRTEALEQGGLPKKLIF
T6 sequence (Q15375 28-998): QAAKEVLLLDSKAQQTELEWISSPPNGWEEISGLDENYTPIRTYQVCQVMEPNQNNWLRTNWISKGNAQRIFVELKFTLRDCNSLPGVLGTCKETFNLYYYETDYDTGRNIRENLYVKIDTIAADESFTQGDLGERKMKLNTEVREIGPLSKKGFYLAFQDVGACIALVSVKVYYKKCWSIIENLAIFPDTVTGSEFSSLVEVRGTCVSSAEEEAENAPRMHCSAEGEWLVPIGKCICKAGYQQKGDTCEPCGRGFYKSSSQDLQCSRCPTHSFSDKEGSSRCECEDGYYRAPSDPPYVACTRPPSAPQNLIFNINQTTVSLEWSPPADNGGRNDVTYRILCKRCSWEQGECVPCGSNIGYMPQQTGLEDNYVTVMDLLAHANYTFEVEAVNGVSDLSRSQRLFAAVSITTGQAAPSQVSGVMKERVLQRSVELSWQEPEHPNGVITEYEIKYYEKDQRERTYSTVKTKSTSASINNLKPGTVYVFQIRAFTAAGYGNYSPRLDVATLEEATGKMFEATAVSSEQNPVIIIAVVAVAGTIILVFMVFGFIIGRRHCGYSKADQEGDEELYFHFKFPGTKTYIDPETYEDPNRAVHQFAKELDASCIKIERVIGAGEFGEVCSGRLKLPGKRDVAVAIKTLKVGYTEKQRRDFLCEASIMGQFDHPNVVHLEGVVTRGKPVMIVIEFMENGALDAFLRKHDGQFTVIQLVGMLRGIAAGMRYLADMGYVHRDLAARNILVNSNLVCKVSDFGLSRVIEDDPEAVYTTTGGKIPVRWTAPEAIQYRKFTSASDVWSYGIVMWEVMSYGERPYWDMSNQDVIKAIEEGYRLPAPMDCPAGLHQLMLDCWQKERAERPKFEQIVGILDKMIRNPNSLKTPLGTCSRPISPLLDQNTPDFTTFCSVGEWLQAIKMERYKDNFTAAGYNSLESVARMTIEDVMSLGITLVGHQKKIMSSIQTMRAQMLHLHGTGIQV
T2 sequence (P45984 whole entry): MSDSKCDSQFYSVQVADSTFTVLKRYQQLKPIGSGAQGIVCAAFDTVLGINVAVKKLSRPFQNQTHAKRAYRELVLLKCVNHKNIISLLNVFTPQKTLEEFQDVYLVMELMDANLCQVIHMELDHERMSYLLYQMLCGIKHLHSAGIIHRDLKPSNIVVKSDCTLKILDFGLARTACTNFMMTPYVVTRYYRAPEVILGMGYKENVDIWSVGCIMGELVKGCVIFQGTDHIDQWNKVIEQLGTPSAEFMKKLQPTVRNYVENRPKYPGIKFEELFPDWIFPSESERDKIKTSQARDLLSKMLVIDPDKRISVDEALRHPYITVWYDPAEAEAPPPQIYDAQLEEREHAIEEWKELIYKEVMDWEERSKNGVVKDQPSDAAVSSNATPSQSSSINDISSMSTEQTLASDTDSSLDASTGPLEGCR

## CNC(=O)c1ccc2c(c1)C(=O)c1ccc(Nc3ccc(F)c(NC(=O)C4CC4)c3)cc1CC2 [Compound 2015]
340 wild-type kinases [1]; 0.2 µM 2015, read-out: MEK1 residual activity
  remaining activity at 0.2 µM: 105%
340 wild-type kinases [1]; 1 µM 2015, read-out: MEK1 residual activity
  remaining activity at 1 µM: 99.8%
340 wild-type kinases [1]; MEK1, 0.2 µM, read-out: residual activity
  remaining activity at 0.2 µM: 105%
340 wild-type kinases [1]; MEK1, 1 µM, read-out: residual activity
  remaining activity at 1 µM: 99.8%
340 wild-type kinases [2]; 0.2 µM 2015, read-out: JNK2 residual activity
  remaining activity at 0.2 µM: 61.1%
340 wild-type kinases [2]; 1 µM 2015, read-out: JNK2 residual activity
  remaining activity at 1 µM: 40.4%
340 wild-type kinases [2]; JNK2, 0.2 µM, read-out: residual activity
  remaining activity at 0.2 µM: 61.1%
340 wild-type kinases [2]; JNK2, 1 µM, read-out: residual activity
  remaining activity at 1 µM: 40.4%
340 wild-type kinases [2]; panel of 340 kinases, 1 µM and 0.2 µM
  effect on JNK2 (in words): moderate influence
340 wild-type kinases [3]; 0.2 µM 2015, read-out: TNK1 residual activity
  remaining activity at 0.2 µM: 92.8%
340 wild-type kinases [3]; 1 µM 2015, read-out: TNK1 residual activity
  remaining activity at 1 µM: 85.3%
340 wild-type kinases [3]; TNK1, 0.2 µM, read-out: residual activity
  remaining activity at 0.2 µM: 92.8%
340 wild-type kinases [3]; TNK1, 1 µM, read-out: residual activity
  remaining activity at 1 µM: 85.3%
340 wild-type kinases [4]; 0.2 µM 2015, read-out: CHK1 residual activity
  remaining activity at 0.2 µM: 88.2%
340 wild-type kinases [4]; 1 µM 2015, read-out: CHK1 residual activity
  remaining activity at 1 µM: 87.9%
340 wild-type kinases [4]; CHK1, 0.2 µM, read-out: residual activity
  remaining activity at 0.2 µM: 88.2%
340 wild-type kinases [4]; CHK1, 1 µM, read-out: residual activity
  remaining activity at 1 µM: 87.8%
340 wild-type kinases [5]; 0.2 µM 2015, read-out: S6K residual activity
  remaining activity at 0.2 µM: 94.9%
340 wild-type kinases [5]; 1 µM 2015, read-out: S6K residual activity
  remaining activity at 1 µM: 95.1%
340 wild-type kinases [5]; S6K, 0.2 µM, read-out: residual activity
  remaining activity at 0.2 µM: 94.9%
340 wild-type kinases [5]; S6K, 1 µM, read-out: residual activity
  remaining activity at 1 µM: 95.1%
340 wild-type kinases [6]; 0.2 µM 2015, read-out: EPHA7 residual activity
  remaining activity at 0.2 µM: 126%
340 wild-type kinases [6]; 1 µM 2015, read-out: EPHA7 residual activity
  remaining activity at 1 µM: 106%
340 wild-type kinases [6]; EPHA7, 0.2 µM, read-out: residual activity
  remaining activity at 0.2 µM: 126%
340 wild-type kinases [6]; EPHA7, 1 µM, read-out: residual activity
  remaining activity at 1 µM: 106%
340 wild-type kinases [7]; 0.2 µM 2015, read-out: TSSK1 residual activity
  remaining activity at 0.2 µM: 125%
340 wild-type kinases [7]; 1 µM 2015, read-out: TSSK1 residual activity
  remaining activity at 1 µM: 106%
340 wild-type kinases [7]; TSSK1, 0.2 µM, read-out: residual activity
  remaining activity at 0.2 µM: 125%
340 wild-type kinases [7]; TSSK1, 1 µM, read-out: residual activity
  remaining activity at 1 µM: 106%
340 wild-type kinases [8]; 0.2 µM 2015, read-out: CDK7/CycH/MAT1 residual activity
  remaining activity at 0.2 µM: 94%
340 wild-type kinases [8]; 1 µM 2015, read-out: CDK7/CycH/MAT1 residual activity
  remaining activity at 1 µM: 91.1%
340 wild-type kinases [8]; CDK7/CycH/MAT1, 0.2 µM, read-out: residual activity
  remaining activity at 0.2 µM: 94%
340 wild-type kinases [8]; CDK7/CycH/MAT1, 1 µM, read-out: residual activity
  remaining activity at 1 µM: 91.2%
340 wild-type kinases [9]; 0.2 µM 2015, read-out: BUB1B residual activity
  remaining activity at 0.2 µM: 94.1%
340 wild-type kinases [9]; 1 µM 2015, read-out: BUB1B residual activity
  remaining activity at 1 µM: 95.8%
340 wild-type kinases [9]; BUB1B, 0.2 µM, read-out: residual activity
  remaining activity at 0.2 µM: 94.1%
340 wild-type kinases [9]; BUB1B, 1 µM, read-out: residual activity
  remaining activity at 1 µM: 95.8%
340 wild-type kinases [10]; 0.2 µM 2015, read-out: PIM2 residual activity
  remaining activity at 0.2 µM: 119%
340 wild-type kinases [10]; 1 µM 2015, read-out: PIM2 residual activity
  remaining activity at 1 µM: 98.6%
340 wild-type kinases [10]; PIM2, 0.2 µM, read-out: residual activity
  remaining activity at 0.2 µM: 119%
340 wild-type kinases [10]; PIM2, 1 µM, read-out: residual activity
  remaining activity at 1 µM: 98.6%
